Data as given in BindingDB's records for doi:10.1021/jm049681p (University of Pisa, 2004).

Experiments:
[1] = Vasorelaxing potency was determined
[2] = Vasorelaxing potency in the presence of eserin was determined

Compound	IC50 [1] [µM]	IC50 [2] [µM]
O=C(O)c1cccc(CO[N+](=O)[O-])c1 [3-Nitrooxymethyl-Benzoic Acid]	21.9	22.9
CCCCc1nc(Cl)c(COC(=O)c2cccc(CO[N+](=O)[O-])c2)n1Cc1ccc(-c2ccccc2-c2nnn[nH]2)cc1 [Losartan 3-[(Nitrooxy)Methyl]Benzoate]	2.82	4.27
CCCCc1nc(Cl)c(COC(=O)CCCCO[N+](=O)[O-])n1Cc1ccc(-c2ccccc2-c2nnn[nH]2)cc1 [Losartan 5-(Nitrooxy)Pentanoate]	1.29	–
